Consider 24 sequences from patent publication US20070128217A1 (priority 2003, published 2007).

Assay [1] concerns control sera (pooled serum of ten healthy LUMC hospital workers; commercial negative donor pooled serum from the Dutch bloodbank). It is filed as binding, human. On the set-up: Binding of Control serum LUMC to linear peptides / Binding of Control serum Blood-bank to linear peptides / Binding of Control serum LUMC to looped peptides / Binding of Control Serum Blood-Bank to Looped peptides / Binding of Control serum LUMC to linear peptides of the protein M of SARS-CoV Urbani / Binding of Control serum Blood-bank to linear peptides of the protein M of SARS-CoV Urbani / Binding of Control serum LUMC to looped peptides of the protein M of SARS-CoV Urbani / Binding of Control Serum Blood-Bank to Looped peptides of the protein M of SARS-CoV Urbani: unit not given here.

For assay [2], the system named is rabbit serum obtained by immunizing a rabbit with the SARS-CoV strain Frankfurt 1. It counts as binding. Set-up: Binding of a rabbit serum to linear peptides / Binding of a rabbit serum to looped peptides / Rabbit serum linear peptides / Rabbit serum looped peptides / Binding of a rabbit serum to linear peptides of protein N of SARS-CoV Urbani (Rabbit serum linear peptides) / Binding of a rabbit serum to looped/cyclic peptides of protein N of SARS-CoV Urbani (Rabbit serum looped peptides): unit not given here.

LSYYKLGASQRVGTD: in assay [1], the “Binding of Control Serum Blood-Bank to Looped peptides of the protein M of SARS-CoV Urbani” value came out at 0.7, the “Binding of Control serum Blood-bank to linear peptides of the protein M of SARS-CoV Urbani” value was 0.8, the “Binding of Control serum LUMC to linear peptides of the protein M of SARS-CoV Urbani” value is 0.8 and the “Binding of Control serum LUMC to looped peptides of the protein M of SARS-CoV Urbani” value worked out at 0.7. For the same sequence, in assay [2], the “Rabbit serum linear peptides” value is recorded as 0.2 and the “Rabbit serum looped peptides” value came out at 0.3.
With LVKDPPNVQIHTIDG, in assay [1], the “Binding of Control Serum Blood-Bank to Looped peptides” value amounted to 0.6, the “Binding of Control serum Blood-bank to linear peptides” value was 0.4, the “Binding of Control serum LUMC to linear peptides” value came to 0.4 and the “Binding of Control serum LUMC to looped peptides” value is 0.7. In assay [2], the “Binding of a rabbit serum to linear peptides” value is listed as 0.1 and the “Binding of a rabbit serum to looped peptides” value is 0.5.
As for LVKPTVYVYSRVKNL, in assay [1], the “Binding of Control Serum Blood-Bank to Looped peptides” value is 0.7, the “Binding of Control serum Blood-bank to linear peptides” value is 0.8, the “Binding of Control serum LUMC to linear peptides” value is recorded as 0.4 and the “Binding of Control serum LUMC to looped peptides” value is 0.7. In assay [2], the “Binding of a rabbit serum to linear peptides” value is recorded as 0.6 and the “Binding of a rabbit serum to looped peptides” value is on record as 0.9.
As for MADNGTITVEELKQL, in assay [1], the “Binding of Control Serum Blood-Bank to Looped peptides of the protein M of SARS-CoV Urbani” value is listed as 0.4, the “Binding of Control serum Blood-bank to linear peptides of the protein M of SARS-CoV Urbani” value was determined as 0.5, the “Binding of Control serum LUMC to linear peptides of the protein M of SARS-CoV Urbani” value is listed as 0.6 and the “Binding of Control serum LUMC to looped peptides of the protein M of SARS-CoV Urbani” value came to 0.6. Besides, the “Recognition of the peptide by the rabbit serum” value (from here on “Recognition of the peptide”) in assay [2] is on record as “recognized”.
For MAGHPLGRCDIKDLP, in assay [1], the “Binding of Control Serum Blood-Bank to Looped peptides of the protein M of SARS-CoV Urbani” value came out at 0.5, the “Binding of Control serum Blood-bank to linear peptides of the protein M of SARS-CoV Urbani” value turned out to be 0.7, the “Binding of Control serum LUMC to linear peptides of the protein M of SARS-CoV Urbani” value turned out to be 0.5 and the “Binding of Control serum LUMC to looped peptides of the protein M of SARS-CoV Urbani” value came to 0.5. Further, in assay [2], the “Rabbit serum linear peptides” value was found to be 0.4 and the “Rabbit serum looped peptides” value is recorded as 0.3.
Take MRTFRIAIWNLDVII: in assay [1], the “Binding of Control Serum Blood-Bank to Looped peptides of the protein X3 of SARS-CoV Urbani” value is reported as 0.8, the “Binding of Control serum Blood-bank to linear peptides of the protein X3 of SARS-CoV Urbani” value was 0.7, the “Binding of Control serum LUMC to linear peptides of the protein X3 of SARS-CoV Urbani” value worked out at 0.6 and the “Binding of Control serum LUMC to looped peptides of the protein X3 of SARS-CoV Urbani” value stood at 0.8. In assay [2], the “Rabbit serum linear peptides” value is listed as 0.3 and the “Rabbit serum looped peptides” value is on record as 0.4.
Turning to NCQDPAGGALIARCW, in assay [1], the “Binding of Control Serum Blood-Bank to Looped peptides” value came out at 0.8, the “Binding of Control serum Blood-bank to linear peptides” value came out at 0.6, the “Binding of Control serum LUMC to linear peptides” value was found to be 0.3 and the “Binding of Control serum LUMC to looped peptides” value is on record as 0.6. Moreover, in assay [2], the “Rabbit serum linear peptides” value worked out at 0.5 and the “Rabbit serum looped peptides” value came to 0.5.
For the sequence NIVNVSLVKPTVYVY, in assay [1], the “Binding of Control Serum Blood-Bank to Looped peptides” value was found to be 0.6, the “Binding of Control serum Blood-bank to linear peptides” value came out at 0.6, the “Binding of Control serum LUMC to linear peptides” value is reported as 0.4 and the “Binding of Control serum LUMC to looped peptides” value is recorded as 0.8. For the same sequence, in assay [2], the “Binding of a rabbit serum to linear peptides” value is on record as 0.5 and the “Binding of a rabbit serum to looped peptides” value turned out to be 0.6.
On to NKLVKDPPNVQIHTI, for which, in assay [1], the “Binding of Control Serum Blood-Bank to Looped peptides” value is recorded as 0.8, the “Binding of Control serum Blood-bank to linear peptides” value is on record as 1.0, the “Binding of Control serum LUMC to linear peptides” value turned out to be 0.9 and the “Binding of Control serum LUMC to looped peptides” value is 0.9. In assay [2], the “Binding of a rabbit serum to linear peptides” value was found to be 0.1 and the “Binding of a rabbit serum to looped peptides” value is 0.6.
On to NPAMDPIYDEPTTTT, for which, in assay [1], the “Binding of Control Serum Blood-Bank to Looped peptides” value worked out at 0.4, the “Binding of Control serum Blood-bank to linear peptides” value turned out to be 0.4, the “Binding of Control serum LUMC to linear peptides” value stood at 0.3 and the “Binding of Control serum LUMC to looped peptides” value is on record as 0.4. Further, in assay [2], the “Binding of a rabbit serum to linear peptides” value is 0.1 and the “Binding of a rabbit serum to looped peptides” value came to 0.3.
Regarding NTDHAGSNDNIALLV, in assay [1], the “Binding of Control Serum Blood-Bank to Looped peptides of the protein M of SARS-CoV Urbani” value stood at 1.0, the “Binding of Control serum Blood-bank to linear peptides of the protein M of SARS-CoV Urbani” value turned out to be 0.8, the “Binding of Control serum LUMC to linear peptides of the protein M of SARS-CoV Urbani” value was 0.5 and the “Binding of Control serum LUMC to looped peptides of the protein M of SARS-CoV Urbani” value came to 0.9. In assay [2], the “Rabbit serum linear peptides” value was 0.4 and the “Rabbit serum looped peptides” value is recorded as 0.4.
As to NVTINCQDPAGGALI, in assay [1], the “Binding of Control Serum Blood-Bank to Looped peptides” value came out at 0.7, the “Binding of Control serum Blood-bank to linear peptides” value is given as 0.8, the “Binding of Control serum LUMC to linear peptides” value is on record as 0.6 and the “Binding of Control serum LUMC to looped peptides” value worked out at 0.7. In assay [2], the “Rabbit serum linear peptides” value is given as 0.6 and the “Rabbit serum looped peptides” value stood at 0.5.
For NWVTGGIAIAMACIV, in assay [1], the “Binding of Control Serum Blood-Bank to Looped peptides of the protein M of SARS-CoV Urbani” value is listed as 0.6, the “Binding of Control serum Blood-bank to linear peptides of the protein M of SARS-CoV Urbani” value is listed as 0.7, the “Binding of Control serum LUMC to linear peptides of the protein M of SARS-CoV Urbani” value worked out at 0.8 and the “Binding of Control serum LUMC to looped peptides of the protein M of SARS-CoV Urbani” value is given as 0.9. Besides, in assay [2], the “Rabbit serum linear peptides” value is 0.2 and the “Rabbit serum looped peptides” value is 0.3.
Take NYDYCIPYNSVTDTI: in assay [1], the “Binding of Control Serum Blood-Bank to Looped peptides” value is 0.6, the “Binding of Control serum Blood-bank to linear peptides” value came out at 0.6, the “Binding of Control serum LUMC to linear peptides” value was determined as 0.6 and the “Binding of Control serum LUMC to looped peptides” value was found to be 0.7. Besides, in assay [2], the “Binding of a rabbit serum to linear peptides” value amounted to 0.1 and the “Binding of a rabbit serum to looped peptides” value was 0.5.
As to NYFVCWHTHNYDYCI, in assay [1], the “Binding of Control Serum Blood-Bank to Looped peptides” value was determined as 0.6, the “Binding of Control serum Blood-bank to linear peptides” value is recorded as 0.6, the “Binding of Control serum LUMC to linear peptides” value is 0.6 and the “Binding of Control serum LUMC to looped peptides” value is given as 0.6. In addition, in assay [2], the “Binding of a rabbit serum to linear peptides” value was determined as 0.1 and the “Binding of a rabbit serum to looped peptides” value is listed as 0.5.
Turning to PAMDPIYDEPTTTTS, in assay [1], the “Binding of Control Serum Blood-Bank to Looped peptides” value was found to be 0.5, the “Binding of Control serum Blood-bank to linear peptides” value was determined as 0.4, the “Binding of Control serum LUMC to linear peptides” value is reported as 0.4 and the “Binding of Control serum LUMC to looped peptides” value is 0.4. In assay [2], the “Binding of a rabbit serum to linear peptides” value turned out to be 0.1 and the “Binding of a rabbit serum to looped peptides” value worked out at 0.4.
Consider PKLKEDYQIGGYSED, for which, in assay [1], the “Binding of Control Serum Blood-Bank to Looped peptides” value came to 0.5, the “Binding of Control serum Blood-bank to linear peptides” value amounted to 0.4, the “Binding of Control serum LUMC to linear peptides” value is 0.4 and the “Binding of Control serum LUMC to looped peptides” value amounted to 0.7. In assay [2], the “Binding of a rabbit serum to linear peptides” value was found to be 0.1 and the “Binding of a rabbit serum to looped peptides” value came to 0.6.
Turning to PLGRCDIKDLPKEIT, in assay [1], the “Binding of Control Serum Blood-Bank to Looped peptides of the protein M of SARS-CoV Urbani” value came out at 0.9, the “Binding of Control serum Blood-bank to linear peptides of the protein M of SARS-CoV Urbani” value was 0.6, the “Binding of Control serum LUMC to linear peptides of the protein M of SARS-CoV Urbani” value is 0.4 and the “Binding of Control serum LUMC to looped peptides of the protein M of SARS-CoV Urbani” value is listed as 0.8. In addition, in assay [2], the “Rabbit serum linear peptides” value is listed as 0.3 and the “Rabbit serum looped peptides” value worked out at 0.4.
Regarding PNVTINCQDPAGGAL, in assay [1], the “Binding of Control Serum Blood-Bank to Looped peptides” value is 0.4, the “Binding of Control serum Blood-bank to linear peptides” value is on record as 1.0, the “Binding of Control serum LUMC to linear peptides” value is listed as 0.7 and the “Binding of Control serum LUMC to looped peptides” value amounted to 0.4. Further, in assay [2], the “Rabbit serum linear peptides” value is 0.6 and the “Rabbit serum looped peptides” value came out at 0.2.
PVKIDNASPASTVHA: in assay [1], the “Binding of Control Serum Blood-Bank to Looped peptides” value is 0.7, the “Binding of Control serum Blood-bank to linear peptides” value is 0.7, the “Binding of Control serum LUMC to linear peptides” value amounted to 0.5 and the “Binding of Control serum LUMC to looped peptides” value came out at 0.9. For the same sequence, in assay [2], the “Binding of a rabbit serum to linear peptides” value is given as 0.1 and the “Binding of a rabbit serum to looped peptides” value is reported as 0.4.
Take QECVRGTTVLLKEPC: in assay [1], the “Binding of Control Serum Blood-Bank to Looped peptides” value is 0.9, the “Binding of Control serum Blood-bank to linear peptides” value is given as 0.9, the “Binding of Control serum LUMC to linear peptides” value was found to be 1.0 and the “Binding of Control serum LUMC to looped peptides” value came to 0.8. In assay [2], the “Rabbit serum linear peptides” value was 0.6 and the “Rabbit serum looped peptides” value was found to be 0.5.
Turning to QHQNSKKTTKLVVIL, in assay [1], the “Binding of Control Serum Blood-Bank to Looped peptides” value was determined as 0.6, the “Binding of Control serum Blood-bank to linear peptides” value is 0.5, the “Binding of Control serum LUMC to linear peptides” value is given as 0.6 and the “Binding of Control serum LUMC to looped peptides” value was 0.5. Moreover, the “Recognition of the peptide” value in assay [2] is given as “recognized”.
Regarding QLFKPLTKKNYSELD, in assay [1], the “Binding of Control Serum Blood-Bank to Looped peptides of the protein X3 of SARS-CoV Urbani” value was 0.8, the “Binding of Control serum Blood-bank to linear peptides of the protein X3 of SARS-CoV Urbani” value is given as 0.8, the “Binding of Control serum LUMC to linear peptides of the protein X3 of SARS-CoV Urbani” value is on record as 0.8 and the “Binding of Control serum LUMC to looped peptides of the protein X3 of SARS-CoV Urbani” value is 0.8. Besides, in assay [2], the “Rabbit serum linear peptides” value is reported as 0.3 and the “Rabbit serum looped peptides” value is given as 0.3.
For the sequence QNSKKTTKLVVILRI, in assay [1], the “Binding of Control Serum Blood-Bank to Looped peptides” value is given as 0.7, the “Binding of Control serum Blood-bank to linear peptides” value turned out to be 0.5, the “Binding of Control serum LUMC to linear peptides” value is 0.8 and the “Binding of Control serum LUMC to looped peptides” value is listed as 0.7. Besides, in assay [2], the “Recognition of the peptide” value is reported as “recognized”.
